Source: patent US10738028B2, “Spiro three-membered ring, spiro five-membered ring peptide deformylase inhibitor and use thereof in antibacteria and anti-tumor” (priority 2016, dated 2020)
Values after ≈ are worked out from the molar mass of the structure shown.

Experiments:
Format in all cases: cell-based
[1] = tested on: HCT-116 colorectal cancer cell line; test: CCK-8 proliferation inhibition; conditions: concentration of 30 μM, 72 hours, CCK-8
Procedure, shortened: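 Growth inhibition is read by CCK-8 (1:10 dilution) after 72 h of compound exposure. HCT-116 cells grow in McCoy's 5A containing 10% newborn bovine serum at 2000 cells/well, with 1‰ DMSO as vehicle control.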

[2] = tested on: methicillin-sensitive Staphylococcus aureus (MSSA); test: MIC, two-fold agar dilution (CLSI), clinical isolates
Procedure, shortened: (§1)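 Susceptibility was tested using CLSI two-fold agar dilution against the strains examined.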

[3] = tested on: methicillin-resistant Staphylococcus aureus (MRSA); test: as above
Procedure, shortened: as §1

[4] = tested on: Streptococcus pneoumoniae (SPN); test: as above
Procedure, shortened: as §1

[5] = tested on: Escherichia coli (including ESBLs, non-ESBLs); test: as above
Procedure, shortened: as §1

[6] = tested on: methicillin-resistant Staphylococcus epidermidis (MRSE); test: as above
Procedure, shortened: as §1

[7] = tested on: Enterococcus faecium (EFM); test: as above
Procedure, shortened: as §1

[8] = tested on: methicillin-sensitive Staphylococcus epidermidis (MSSE); test: as above
Procedure, shortened: as §1

[9] = tested on: Moraxella catarrhalis (BCA); test: as above
Procedure, shortened: as §1

[10] = tested on: Enterococcus faecalis (EFA); test: as above
Procedure, shortened: as §1

[11] = tested on: BEL-7402 liver cancer cell line; test: CCK-8 proliferation inhibition; conditions: concentration of 30 μM, 72 hours, 30 µM
Text: (§2) 2. The present invention adopts the CCK-8 method to determine the proliferation inhibition effect of the spiro three-membered ring, spiro five-membered ring peptide deformylase inhibitor as described in Examples 1-80 against colorectal cancer cells, lung cancer cells, gastric cancer cells, liver cancer cells, and the like. […] The compound having the best activity synthesized in Example 64 was further tested for its inhibitory activity against other tumor cells including T cell leukemia, acute myeloid leukemia, cervical cancer, breast cancer, prostate cancer and osteosarcoma, and the like (see Table 7).
(§3) (1) HCT-116 colorectal cancer cell line, A549 lung cancer cell line, MGC-803 gastric cancer cell line, BEL-7402 liver cancer cell line, Jurkat T cell leukemia cell line, HL60 acute myeloid leukemia cell line, Hela cervical cancer cell line, MCF-7 breast cancer cell line, PC3 prostate cancer cell line and SAOS-2 osteosarcoma cell line were made into single cell suspension, 180 μL of which was inoculated into 96-well culture plate, which was cultured overnight in CO2 incubator (37° C., 5% CO2, 95% air).
(§4) (2) Each of the spiro three-membered ring, spiro five membered ring peptide deformylase inhibitors was dissolved in DMSO, and was further formulated into drug solution with required different final concentration using corresponding cell culture medium. The drug solutions were added to the above cells respectively (20 μL/well), with the control group added with 1‰ DMSO, and cultured in a CO2 incubator for 72 hours.
(§5) (3) After incubation for 72 hours, the culture solution was decanted, and 100 μL of 1:10 diluted CCK-8 solution was added.
(§6) Wherein, in step (1), the concentration of the single cell suspension was 2000 cells/well.
(§7) Wherein, in step (2), HCT-116 cells were cultured in McCoy's 5A medium (containing 10% newborn bovine serum, 1% double antibody); A549 and PC3 cells were cultured in F12 medium (containing 10% newborn bovine serum, 1% double antibody); MGC-803, BEL-7402, SAOS-2, Jurkat and HL60 cells were cultured in 1640 medium (containing 10% newborn bovine serum, 1% double antibody); and MCF-7 and Hela cells were cultured in DMEM high glucose medium (containing 10% newborn bovine serum, 1% double antibody).

[12] = tested on: A549 lung cancer cell line; test: CCK-8 proliferation inhibition; conditions: Homo sapiens, A549, 72 h, concentration of 30 μM
Text: as §2, §3, §4, §5, §6, §7

[13] = tested on: MGC-803 gastric cancer cell line; test: CCK-8 proliferation inhibition; conditions: Homo sapiens, MGC-803, 72 h, concentration of 30 μM
Text: as §2, §3, §4, §5, §6, §7

O=CN(O)C[C@@H](CC1CCCC1)C(=O)N1CC2(CC2)C[C@H]1C(=O)Nc1ncco1 [Example 36]
inhibition at 30 µM ([1]; Homo sapiens, HCT-116, 72 h, read-out: HCT116 inhibition rate/%): > 50%
HCT116 inhibition rate/% ([1]; 30 µM): 60%
MIC (anti-bacterial activity) ([2]; strain MSSA 15-3): 8 µg/mL (≈ 19.8 µM)
MIC (anti-bacterial activity) ([2]; strain MSSA 15-4): 8 µg/mL (≈ 19.8 µM)
MIC (anti-bacterial activity) ([2]; strain MSSA 15-5): 8 µg/mL (≈ 19.8 µM)
MIC (anti-bacterial activity) ([2]; strain MSSA 15-6): 4 µg/mL (≈ 9.89 µM)
MIC (anti-bacterial activity) ([3]; strain MRSA 15-1): 4 µg/mL (≈ 9.89 µM)
MIC (anti-bacterial activity) ([3]; strain MRSA 15-2): 8 µg/mL (≈ 19.8 µM)
MIC (anti-bacterial activity) ([3]; strain MRSA 15-3): 4 µg/mL (≈ 9.89 µM)
MIC (anti-bacterial activity) ([3]; strain MRSA 15-4): 8 µg/mL (≈ 19.8 µM)
MIC (anti-bacterial activity) ([4]; strain SPN 16-2): 2 µg/mL (≈ 4.94 µM)
MIC (anti-bacterial activity) ([4]; strain SPN 16-4): 16 µg/mL (≈ 39.6 µM)
MIC (anti-bacterial activity) ([5]; strain ECO+ 15-1): 8 µg/mL (≈ 19.8 µM)
MIC (anti-bacterial activity) ([5]; strain ECO+ 15-2): > 32 µg/mL
MIC (anti-bacterial activity) ([5]; strain ECO+ 15-3): > 32 µg/mL
MIC (anti-bacterial activity) ([5]; strain ECO+ 15-4): > 32 µg/mL
MIC (anti-bacterial activity) ([5]; strain ECO− 15-1): > 32 µg/mL
MIC (anti-bacterial activity) ([5]; strain ECO− 15-2): 32 µg/mL (≈ 79.1 µM)
MIC (anti-bacterial activity) ([5]; strain ECO− 15-3): 32 µg/mL (≈ 79.1 µM)
MIC (anti-bacterial activity) ([5]; strain ECO− 15-4): 32 µg/mL (≈ 79.1 µM)
MIC (anti-bacterial activity) ([6]; strain MRSE 15-1): 4 µg/mL (≈ 9.89 µM)
MIC (anti-bacterial activity) ([6]; strain MRSE 15-2): 8 µg/mL (≈ 19.8 µM)
MIC (anti-bacterial activity) ([6]; strain MRSE 15-3): 8 µg/mL (≈ 19.8 µM)
MIC (anti-bacterial activity) ([6]; strain MRSE 15-7): 8 µg/mL (≈ 19.8 µM)
MIC (anti-bacterial activity) ([7]; strain EFM 15-1): 16 µg/mL (≈ 39.6 µM)
MIC (anti-bacterial activity) ([7]; strain EFM 15-2): 8 µg/mL (≈ 19.8 µM)
MIC (anti-bacterial activity) ([7]; strain EFM 15-3): 2 µg/mL (≈ 4.94 µM)
MIC (anti-bacterial activity) ([7]; strain EFM 15-4): 8 µg/mL (≈ 19.8 µM)
MIC (anti-bacterial activity) ([7]; strain EFM 15-5): 8 µg/mL (≈ 19.8 µM)
MIC (anti-bacterial activity) ([7]; strain EFM 15-6): 8 µg/mL (≈ 19.8 µM)
MIC (anti-bacterial activity) ([8]; strain MSSE 15-3): 8 µg/mL (≈ 19.8 µM)
MIC (anti-bacterial activity) ([8]; strain MSSE 15-4): 8 µg/mL (≈ 19.8 µM)
MIC (anti-bacterial activity) ([8]; strain MSSE 15-5): 8 µg/mL (≈ 19.8 µM)
MIC (anti-bacterial activity) ([8]; strain MSSE 15-6): 8 µg/mL (≈ 19.8 µM)
Anti-bacterial activity (MIC), strain BCA 14-10 ([9]; clinical isolate BCA 14-10): 2 µg/mL
MIC (anti-bacterial activity) ([9]; strain BCA 14-1): 16 µg/mL (≈ 39.6 µM)
MIC (anti-bacterial activity) ([9]; strain BCA 14-4): 16 µg/mL (≈ 39.6 µM)
MIC (anti-bacterial activity) ([9]; strain BCA 14-5): 4 µg/mL (≈ 9.89 µM)
MIC (anti-bacterial activity) ([9]; strain BCA 14-6): 16 µg/mL (≈ 39.6 µM)
MIC (anti-bacterial activity) ([9]; strain BCA 14-7): 4 µg/mL (≈ 9.89 µM)
MIC (anti-bacterial activity) ([9]; strain BCA 14-8): 8 µg/mL (≈ 19.8 µM)
MIC (anti-bacterial activity) ([10]; strain EFA 15-1): 16 µg/mL (≈ 39.6 µM)
MIC (anti-bacterial activity) ([10]; strain EFA 15-2): 16 µg/mL (≈ 39.6 µM)
MIC (anti-bacterial activity) ([10]; strain EFA 15-3): 16 µg/mL (≈ 39.6 µM)
MIC (anti-bacterial activity) ([10]; strain EFA 15-4): 16 µg/mL (≈ 39.6 µM)
MIC (anti-bacterial activity) ([10]; strain EFA 15-5): 16 µg/mL (≈ 39.6 µM)
MIC (anti-bacterial activity) ([10]; strain EFA 15-6): 16 µg/mL (≈ 39.6 µM)
MIC (anti-bacterial activity) ([10]; strain EFA 15-9): 16 µg/mL (≈ 39.6 µM)
Inhibition of proliferation, Liver cancer BEL-7402 [11]: 73%
inhibition at 30 µM [12]: 26%
inhibition at 30 µM [13]: 46%
